Test results reported in patent publication US20090028832A1, “Compositions and methods for targeted tumor therapy” (priority 2006, published 2009).

Tests used:
Format in all cases: cell-based
C4-2 cells = experiment: Chemotherapeutic sensitivity, cell growth by MTT assay, C4-2 cells; conditions: Homo sapiens, invasive LNCaP lineage C4-2 cells, in vitro growth
Protocol: (§1) Cells (5×10^3 per well) were cultured in 96-well plates for 24 hr and then replaced with fresh cultured medium to which were added Paclitaxel, Etoposide, or Doxorubicin (Sigma, St. Louis, Mo.) at 4 different concentrations, followed by incubation for 96 hrs. Cell growth was measured using the MTT assay.

ARCaPM cells = experiment: Chemotherapeutic sensitivity, cell growth by MTT assay, ARCaPM cells; conditions: Homo sapiens, in vitro growth, 96 hrs incubation
Protocol: as §1

ARCaPE cells = experiment: Chemotherapeutic sensitivity, cell growth by MTT assay, ARCaPE cells; conditions: Homo sapiens, in vitro growth, 96 hrs incubation
Protocol: as §1

Structure (SMILES)	IC50 (C4-2 cells) [µM]	IC50 (ARCaPM cells) [µM]	IC50 (ARCaPE cells) [µM]
COc1cccc2c1C(=O)c1c(O)c3c(c(O)c1C2=O)C[C@@](O)(C(=O)CO)C[C@@H]3O[C@H]1C[C@H](N)[C@H](O)[C@H](C)O1 [doxorubicin]	2.7	5.5	3.4
COc1cc([C@@H]2c3cc4c(cc3[C@@H](O[C@@H]3O[C@@H]5CO[C@@H](C)O[C@H]5[C@H](O)[C@H]3O)[C@H]3COC(=O)[C@H]23)OCO4)cc(OC)c1O [etoposide]	5.6	5.8	8.1
CC(=O)O[C@H]1C(=O)[C@@]2(C)[C@H]([C@H](OC(=O)c3ccccc3)[C@]3(O)C[C@H](OC(=O)[C@H](O)[C@@H](NC(=O)c4ccccc4)c4ccccc4)C(C)=C1C3(C)C)[C@]1(OC(C)=O)CO[C@@H]1C[C@@H]2O [paclitaxel]	0.0235	0.039	0.053
